Laboratory results taken from PubChem BioAssay (NCI).
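Compound exposure: 48 hours, 5 concentrations, 96-well plates. The concentration for 50% growth inhibition is given as GI50. Definition used: TGI = concentration required for complete inhibition of growth.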

Columns and labels:
Assay in all cases: growth of human tumour cells (NCI), 48 h
[1] = test system: MCF7 breast
[2] = test system: PC-3 prostate
[3] = test system: M14 melanoma
[4] = test system: HT29 colon
[5] = test system: OVCAR-3 ovarian
[6] = test system: UACC-62 melanoma
[7] = test system: SNB-19 CNS
[8] = test system: NCI-H23 lung
[9] = test system: RPMI-8226 leukemia
[10] = test system: SNB-75 CNS

SMILES	TGI [1]	TGI [2]	TGI [3]	TGI [4]	TGI [5]	TGI [6]	TGI [7]	TGI [8]	TGI [9]	TGI [10]	GI50 [1]	GI50 [2]	GI50 [3]	GI50 [4]	GI50 [5]	GI50 [6]	GI50 [7]	GI50 [8]	GI50 [9]	GI50 [10]
OCC1NC(CO)C(O)C1O (configuration not stated)	> 100 µM	> 100 µM	> 100 µM	> 100 µM	> 100 µM	> 100 µM	> 100 µM	> 100 µM	> 100 µM	> 100 µM	–	–	–	–	–	–	–	–	–	–
C=C(CN(C)C)C(=O)c1ccccc1	–	30.6 µM	7.54 µM	24.2 µM	9.9 µM	30.1 µM	53.1 µM	45 µM	> 66.3 µM	39.7 µM	–	–	–	–	–	–	–	–	–	–
O=S1(=O)C[C@H](NCc2ccccc2)[C@H](NCc2ccccc2)C1	> 100 µM	> 100 µM	> 100 µM	> 100 µM	> 100 µM	> 100 µM	> 100 µM	> 100 µM	86.7 µM	> 100 µM	–	–	–	–	–	–	–	–	–	–
CCOP(=O)(OCC)C(Cc1c[nH]c2ccccc12)C(=O)O (configuration not stated)	> 100 µM	> 100 µM	> 100 µM	> 100 µM	> 100 µM	–	> 100 µM	> 100 µM	> 100 µM	> 100 µM	–	–	–	–	–	–	–	–	–	–
C[n+]1c(-c2ccc(/C=N\Nc3ccnc(N/N=C/c4ccc(-c5cn6ccsc6[n+]5C)cc4)n3)cc2)cn2ccsc21	> 100 µM	> 100 µM	30.4 µM	> 100 µM	> 100 µM	76.4 µM	> 100 µM	> 100 µM	> 100 µM	92.1 µM	–	–	–	–	–	–	–	–	–	–
COc1ccc(CCn2ccc(C)n2)c(OC)c1	> 100 µM	> 100 µM	> 100 µM	> 100 µM	> 100 µM	> 100 µM	> 100 µM	> 100 µM	–	> 100 µM	–	–	–	–	–	–	–	–	–	–
Nc1ccc(C2(c3ccc(N)cc3)C3CC4CC(C3)CC2C4)cc1	43.7 µM	29.3 µM	29.9 µM	26.3 µM	25.1 µM	30.6 µM	33.3 µM	28.7 µM	–	–	–	–	–	–	–	–	–	–	–	–
CC(C)N(CCNc1nc(C(Cl)(Cl)Cl)nc2cc(Cl)ccc12)C(C)C	3.05 µM	2.73 µM	3.19 µM	1.85 µM	3.66 µM	3.22 µM	4.78 µM	3.47 µM	3.18 µM	3.84 µM	1.54 µM	1.15 µM	1.58 µM	0.523 µM	1.68 µM	1.72 µM	1.9 µM	1.61 µM	1.19 µM	1.84 µM
Nc1nc(N)c(N=Nc2ccccc2)c(=O)[nH]1	–	–	> 100 µM	> 100 µM	> 100 µM	69.7 µM	> 100 µM	93 µM	> 100 µM	23.7 µM	–	–	–	–	–	–	–	–	–	–
Cc1ccc(S(=O)(=O)NCCCSCCN)cc1	> 100 µM	> 100 µM	> 100 µM	> 100 µM	> 100 µM	–	> 100 µM	> 100 µM	–	> 100 µM	–	–	–	–	–	–	–	–	–	–
CC(=O)OC/C=C\Cn1ncc(=O)[nH]c1=O	45.1 µM	36 µM	46.8 µM	29.9 µM	69.3 µM	–	> 100 µM	28.9 µM	31.4 µM	33.9 µM	–	–	–	–	–	–	–	–	–	–
CC=C/C=C/[C@@H]1O[C@](O)([C@H](CC)C(=O)NC/C=C/C=C(\C)[C@@H](OC)[C@@H](C)[C@@H]2O[C@H](/C=C/C=C/C=C(\C)C(=O)c3c(O)cc[nH]c3=O)[C@H](O)[C@@H]2O)[C@H](O)[C@H](O)C1(C)C	> 100 µM	> 100 µM	> 100 µM	> 100 µM	> 100 µM	> 100 µM	> 100 µM	> 100 µM	> 100 µM	> 100 µM	–	–	–	–	–	–	–	–	–	–
COc1ccc(/C=C/c2cc(O)cc(OC3OC(CO)C(O)C(O)C3O)c2)cc1O (configuration not stated)	> 100 µM	> 100 µM	> 100 µM	> 100 µM	> 100 µM	> 100 µM	> 100 µM	–	> 100 µM	> 100 µM	–	–	–	–	–	–	–	–	–	–
CC(O)C1(O)C(O)CC(OC2c3cc4c(c(O)c3[C@@H]3C[C@@]2(C)OC32C=c3cc[nH]c3=N2)C(=O)c2cccc(O)c2C4=O)OC1C (some centres not stated)	1.69 µM	4.86 µM	2.73 µM	2.68 µM	6.45 µM	3.18 µM	11.3 µM	3.81 µM	4.88 µM	8 µM	–	–	–	–	–	–	–	–	–	–
O=C(Nc1ccc(C(F)(F)F)cc1[N+](=O)[O-])C(=O)Nn1c(=S)[nH]c2ccccc2c1=O	–	–	–	> 100 µM	–	> 100 µM	> 100 µM	> 100 µM	> 100 µM	> 100 µM	–	–	–	–	–	–	–	–	–	–
O=Nn1c2ccccc2c2ccccc21	> 100 µM	> 100 µM	> 100 µM	> 100 µM	> 100 µM	> 100 µM	> 100 µM	> 100 µM	> 100 µM	> 100 µM	–	–	–	–	–	–	–	–	–	–
CCOC(=O)CCCc1cc(=O)c2c(C)c3[nH]c4ccc(Cl)cc4c3c(C)c2[nH]1	47.4 µM	70.6 µM	> 100 µM	53.8 µM	34.4 µM	–	60.7 µM	> 100 µM	> 100 µM	64 µM	–	–	–	–	–	–	–	–	–	–
Fc1ccc(C2CC(c3cccc(Nc4ccncc4)c3)=NN2c2ccccc2)cc1 (configuration not stated)	3.48 µM	3.18 µM	3.71 µM	5.09 µM	3.24 µM	3.24 µM	3.04 µM	3.33 µM	–	2.87 µM	1.74 µM	1.58 µM	1.87 µM	2.13 µM	1.75 µM	1.76 µM	1.61 µM	1.75 µM	–	1.29 µM
